Our source for the thermal stability z-score values is the supplement of paper PMC12463676, “Small-molecule dissolution of stress granules by redox modulation benefits ALS models” (Nature Chemical Biology, 2025).

Compound in test [1]: O=[As]([O-])(O)O.[K+] [potassium arsenate]
Briefly: thermal stability z-score vs DMSO; higher = more thermally stabilized by treatment. The conditions noted are these: HeLa; arsenate concentration 1 mM. How it is done: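 Cellular thermal proteome profiling in HeLa cells treated with 1 mM arsenate for 1 h (DMSO pretreatment), heated to ten temperatures (37-66.3 °C). Soluble protein was quantified by TMT mass spectrometry relative to DMSO controls; the thermal stability score was transformed to a z-score; mean of n = 3 experiments.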

Compound in test [2]: NC(=O)CCCCC1CCSS1 [lipoamide]
The test is described as above. The note with it: HeLa, lipoamide concentration 100 µM. How it is done: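 Cellular thermal proteome profiling in HeLa cells. Cells were treated with 100 µM lipoamide for 1 h, with or without 1 mM arsenate for a further 1 h, then heated to ten temperatures (37-66.3 °C), and soluble protein was quantified by TMT mass spectrometry relative to 0.1% DMSO controls. The thermal stability score (sum of log2 fold changes minus the abundance score) was transformed to a z-score; mean of n = 3 experiments.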

Setting [3] is: arsenate co-treatment: 1 mM arsenate 1 h.
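Further: each temperature applied for 3 min, abundance score taken as mean log2 fold change at the two lowest temperatures, z-score obtained by mean subtraction and division by SD.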

Chain of UniProt Q9H4H8 (Q9H4H8 whole entry): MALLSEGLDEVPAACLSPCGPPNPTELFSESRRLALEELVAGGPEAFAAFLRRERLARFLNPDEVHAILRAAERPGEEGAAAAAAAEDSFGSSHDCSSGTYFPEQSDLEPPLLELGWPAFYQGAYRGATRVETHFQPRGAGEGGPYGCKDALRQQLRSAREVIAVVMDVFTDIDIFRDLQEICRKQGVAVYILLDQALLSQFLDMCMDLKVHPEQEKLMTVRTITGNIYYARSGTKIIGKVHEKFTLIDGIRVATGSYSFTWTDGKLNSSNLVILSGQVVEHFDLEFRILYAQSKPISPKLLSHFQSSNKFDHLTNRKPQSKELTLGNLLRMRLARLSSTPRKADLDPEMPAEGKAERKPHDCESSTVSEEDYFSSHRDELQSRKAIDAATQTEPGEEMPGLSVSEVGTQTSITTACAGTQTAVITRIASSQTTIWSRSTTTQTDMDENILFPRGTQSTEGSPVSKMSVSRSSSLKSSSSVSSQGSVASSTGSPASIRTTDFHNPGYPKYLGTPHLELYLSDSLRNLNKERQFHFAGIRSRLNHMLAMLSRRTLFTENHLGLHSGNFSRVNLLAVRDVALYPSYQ
Chain of UniProt Q8NEN9 (Q8NEN9 whole entry): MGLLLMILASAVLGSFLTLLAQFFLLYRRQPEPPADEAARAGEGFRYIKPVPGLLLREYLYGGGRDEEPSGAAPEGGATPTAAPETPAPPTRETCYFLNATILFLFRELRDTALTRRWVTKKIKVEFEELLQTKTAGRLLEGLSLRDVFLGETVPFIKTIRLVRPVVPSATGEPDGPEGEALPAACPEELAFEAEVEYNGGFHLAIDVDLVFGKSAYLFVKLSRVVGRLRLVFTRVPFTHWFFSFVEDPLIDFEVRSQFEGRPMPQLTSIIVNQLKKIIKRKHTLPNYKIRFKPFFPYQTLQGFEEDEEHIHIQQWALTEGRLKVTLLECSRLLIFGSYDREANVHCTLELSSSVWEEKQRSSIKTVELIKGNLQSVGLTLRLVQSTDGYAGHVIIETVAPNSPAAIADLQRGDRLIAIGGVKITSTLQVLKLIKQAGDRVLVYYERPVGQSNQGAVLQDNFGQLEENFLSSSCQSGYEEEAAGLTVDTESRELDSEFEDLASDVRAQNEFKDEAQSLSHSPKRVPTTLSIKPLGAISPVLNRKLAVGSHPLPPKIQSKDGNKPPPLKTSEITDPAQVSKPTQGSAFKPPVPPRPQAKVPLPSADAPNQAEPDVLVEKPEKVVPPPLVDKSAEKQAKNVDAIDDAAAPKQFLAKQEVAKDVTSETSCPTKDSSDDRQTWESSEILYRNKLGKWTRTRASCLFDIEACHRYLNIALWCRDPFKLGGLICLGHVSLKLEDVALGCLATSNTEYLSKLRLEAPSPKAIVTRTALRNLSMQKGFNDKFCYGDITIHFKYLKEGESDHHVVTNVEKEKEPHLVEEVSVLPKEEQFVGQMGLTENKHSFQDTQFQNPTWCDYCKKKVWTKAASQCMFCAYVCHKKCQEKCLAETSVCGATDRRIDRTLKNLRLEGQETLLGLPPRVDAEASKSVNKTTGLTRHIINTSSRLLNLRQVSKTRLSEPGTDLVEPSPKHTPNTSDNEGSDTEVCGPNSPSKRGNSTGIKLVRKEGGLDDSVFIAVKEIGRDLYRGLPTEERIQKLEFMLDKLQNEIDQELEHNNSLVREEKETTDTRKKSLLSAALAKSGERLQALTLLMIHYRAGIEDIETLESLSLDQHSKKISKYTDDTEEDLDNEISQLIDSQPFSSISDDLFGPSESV
Chain of UniProt P56182 (P56182 whole entry): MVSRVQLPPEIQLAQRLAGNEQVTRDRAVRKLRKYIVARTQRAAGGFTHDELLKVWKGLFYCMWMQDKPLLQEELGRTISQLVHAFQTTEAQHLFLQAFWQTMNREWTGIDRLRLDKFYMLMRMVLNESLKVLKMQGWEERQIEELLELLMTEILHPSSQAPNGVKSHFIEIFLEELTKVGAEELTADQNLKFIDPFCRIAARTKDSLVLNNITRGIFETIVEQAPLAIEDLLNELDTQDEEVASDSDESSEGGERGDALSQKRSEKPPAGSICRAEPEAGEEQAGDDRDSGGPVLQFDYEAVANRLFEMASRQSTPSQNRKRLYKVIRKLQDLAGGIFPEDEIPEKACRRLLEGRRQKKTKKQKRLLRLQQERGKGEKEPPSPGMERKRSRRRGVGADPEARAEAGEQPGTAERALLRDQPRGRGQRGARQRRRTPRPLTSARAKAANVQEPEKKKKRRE
Chain of UniProt P27348 (P27348 whole entry): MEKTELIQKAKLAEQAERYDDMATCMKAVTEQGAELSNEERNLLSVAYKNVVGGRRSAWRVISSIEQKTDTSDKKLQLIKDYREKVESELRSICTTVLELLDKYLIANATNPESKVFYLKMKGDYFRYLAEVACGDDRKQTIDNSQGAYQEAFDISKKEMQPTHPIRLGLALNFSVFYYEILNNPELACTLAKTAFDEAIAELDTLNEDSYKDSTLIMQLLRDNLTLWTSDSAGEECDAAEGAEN
Chain of UniProt Q9BW83 (Q9BW83 whole entry): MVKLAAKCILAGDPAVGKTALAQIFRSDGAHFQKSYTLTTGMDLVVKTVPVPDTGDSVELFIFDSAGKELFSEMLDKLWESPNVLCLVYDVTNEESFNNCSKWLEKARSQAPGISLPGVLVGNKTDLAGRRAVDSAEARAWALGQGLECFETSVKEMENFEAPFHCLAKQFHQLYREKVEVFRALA
Chain of UniProt P25098 (P25098 whole entry): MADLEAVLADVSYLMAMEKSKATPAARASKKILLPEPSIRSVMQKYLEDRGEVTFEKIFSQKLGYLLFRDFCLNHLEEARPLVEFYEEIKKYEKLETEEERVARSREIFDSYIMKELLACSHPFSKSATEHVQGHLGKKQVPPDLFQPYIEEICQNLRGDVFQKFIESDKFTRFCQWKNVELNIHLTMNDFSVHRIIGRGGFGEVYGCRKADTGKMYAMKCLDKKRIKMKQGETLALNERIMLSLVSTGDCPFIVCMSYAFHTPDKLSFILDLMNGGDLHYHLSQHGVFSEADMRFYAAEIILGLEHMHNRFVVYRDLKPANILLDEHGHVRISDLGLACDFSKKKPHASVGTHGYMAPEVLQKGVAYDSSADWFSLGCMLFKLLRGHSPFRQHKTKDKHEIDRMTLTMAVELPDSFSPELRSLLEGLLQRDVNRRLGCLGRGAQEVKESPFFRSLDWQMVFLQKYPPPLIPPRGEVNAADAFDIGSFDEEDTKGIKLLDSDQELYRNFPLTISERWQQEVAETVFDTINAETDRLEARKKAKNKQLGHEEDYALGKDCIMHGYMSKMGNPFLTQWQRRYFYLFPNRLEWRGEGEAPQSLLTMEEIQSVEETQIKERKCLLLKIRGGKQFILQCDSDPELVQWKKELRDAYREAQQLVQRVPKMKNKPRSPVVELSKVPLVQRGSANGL
Chain of UniProt Q15286 (Q15286 whole entry): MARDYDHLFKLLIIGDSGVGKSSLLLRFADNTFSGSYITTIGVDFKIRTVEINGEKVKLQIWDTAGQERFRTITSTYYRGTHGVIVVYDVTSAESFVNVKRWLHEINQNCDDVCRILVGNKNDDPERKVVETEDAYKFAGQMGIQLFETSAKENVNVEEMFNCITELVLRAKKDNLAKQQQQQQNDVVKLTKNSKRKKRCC
Chain of UniProt O95243 (O95243 whole entry): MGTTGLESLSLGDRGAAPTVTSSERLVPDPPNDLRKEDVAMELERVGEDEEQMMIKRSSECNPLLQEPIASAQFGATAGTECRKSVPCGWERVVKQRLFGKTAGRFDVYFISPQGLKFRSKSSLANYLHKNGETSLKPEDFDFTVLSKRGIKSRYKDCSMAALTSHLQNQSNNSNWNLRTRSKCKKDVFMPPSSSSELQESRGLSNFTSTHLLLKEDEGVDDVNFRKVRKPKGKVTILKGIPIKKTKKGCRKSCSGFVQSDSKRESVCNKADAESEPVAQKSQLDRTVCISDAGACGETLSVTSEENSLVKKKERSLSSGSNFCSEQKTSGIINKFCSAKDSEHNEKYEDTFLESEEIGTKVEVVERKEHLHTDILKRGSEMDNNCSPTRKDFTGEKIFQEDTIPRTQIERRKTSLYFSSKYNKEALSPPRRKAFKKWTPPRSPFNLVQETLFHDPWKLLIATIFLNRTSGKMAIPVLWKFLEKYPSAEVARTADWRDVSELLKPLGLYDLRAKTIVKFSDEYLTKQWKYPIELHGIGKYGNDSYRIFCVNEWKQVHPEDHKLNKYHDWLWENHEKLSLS
Chain of UniProt O75920 (O75920 whole entry): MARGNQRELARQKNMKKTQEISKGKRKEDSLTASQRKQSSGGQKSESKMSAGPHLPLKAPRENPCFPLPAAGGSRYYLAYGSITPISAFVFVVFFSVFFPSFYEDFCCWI
Chain of UniProt Q9NRS6 (Q9NRS6 whole entry): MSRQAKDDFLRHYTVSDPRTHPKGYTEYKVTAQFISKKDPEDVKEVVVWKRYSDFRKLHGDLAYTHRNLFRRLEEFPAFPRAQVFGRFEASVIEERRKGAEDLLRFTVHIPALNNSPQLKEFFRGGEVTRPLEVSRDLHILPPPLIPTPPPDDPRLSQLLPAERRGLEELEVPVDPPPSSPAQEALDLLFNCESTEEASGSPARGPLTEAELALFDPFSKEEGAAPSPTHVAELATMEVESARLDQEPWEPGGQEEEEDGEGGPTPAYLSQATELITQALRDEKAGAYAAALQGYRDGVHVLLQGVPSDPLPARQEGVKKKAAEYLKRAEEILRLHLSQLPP
Chain of UniProt Q969H6 (Q969H6 whole entry): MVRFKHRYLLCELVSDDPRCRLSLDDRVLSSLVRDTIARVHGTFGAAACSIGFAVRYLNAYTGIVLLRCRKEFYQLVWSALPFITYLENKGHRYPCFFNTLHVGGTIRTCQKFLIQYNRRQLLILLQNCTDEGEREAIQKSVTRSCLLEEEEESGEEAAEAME
Chain of UniProt Q9UKB3 (Q9UKB3 whole entry, looked up): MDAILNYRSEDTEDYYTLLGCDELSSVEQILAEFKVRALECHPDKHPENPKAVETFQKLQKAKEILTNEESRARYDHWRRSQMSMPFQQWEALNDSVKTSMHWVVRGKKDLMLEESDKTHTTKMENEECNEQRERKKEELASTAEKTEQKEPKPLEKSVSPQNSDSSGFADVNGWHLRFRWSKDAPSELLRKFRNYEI

Consider IMPA1 (UniProt P29218), for which the thermal stability z-score in test [1] stood at 0.0144; in test [2] (setting [3]) it was 0.595; in test [2] (arsenate co-treatment: none) it was 0.776.

As to RRAS2 (UniProt P62070), the thermal stability z-score came out at 0.544 in test [1], 0.129 in test [2] (setting [3]) and 0.0499 in test [2] (arsenate co-treatment: none).

For ZNRF2 (UniProt Q8NHG8), the results for the thermal stability z-score in test [1], in test [2] (setting [3]) and in test [2] (arsenate co-treatment: none) were -2.6, -0.729 and -0.885, respectively.

FRYL (UniProt O94915): the thermal stability z-score in test [1] was 0.161; in test [2] (setting [3]) it was -0.0982; in test [2] (arsenate co-treatment: none) it was 0.156.

PDZD8 (UniProt Q8NEN9): the thermal stability z-score in test [1] is 0.123; in test [2] (setting [3]), -0.155; in test [2] (arsenate co-treatment: none), 0.291.

For the target YWHAQ (UniProt P27348), the figures for the thermal stability z-score in test [1], in test [2] (setting [3]) and in test [2] (arsenate co-treatment: none) were 0.199, 0.857 and 0.727, respectively.

In the case of SLC12A4 (UniProt Q9UP95), the thermal stability z-score in test [1] was -0.606; in test [2] (setting [3]), -0.481; in test [2] (arsenate co-treatment: none) it was -1.18.

Turning to RSL24D1 (UniProt Q9UHA3), the thermal stability z-score in test [1] is -3.91; in test [2] (setting [3]), 1.21; in test [2] (arsenate co-treatment: none), 0.133.

On to DNAJC12 (UniProt Q9UKB3), for which the values for the thermal stability z-score in test [1], in test [2] (setting [3]) and in test [2] (arsenate co-treatment: none) were -0.108, -0.279 and -0.182, respectively.

In the case of MBD4 (UniProt O95243), the thermal stability z-score was -0.571 in test [1], -0.0777 in test [2] (setting [3]) and 0.0091 in test [2] (arsenate co-treatment: none).

Regarding EEFSEC (UniProt P57772), the thermal stability z-score is -0.884 in test [1], -0.771 in test [2] (setting [3]) and 0.715 in test [2] (arsenate co-treatment: none).

Take FAM83D (UniProt Q9H4H8): the thermal stability z-score is 0.641 in test [1], -0.472 in test [2] (setting [3]) and -0.432 in test [2] (arsenate co-treatment: none).

For RRP1 (UniProt P56182), the thermal stability z-score is 0.671 in test [1], 0.0258 in test [2] (setting [3]) and 0.131 in test [2] (arsenate co-treatment: none).

Regarding WDR70 (UniProt Q9NW82), the values for the thermal stability z-score in test [1], in test [2] (setting [3]) and in test [2] (arsenate co-treatment: none) were -0.891, 0.397 and 0.0128, respectively.

In the case of POP5 (UniProt Q969H6), the thermal stability z-score in test [1] is -0.617; in test [2] (setting [3]) it was -0.5; in test [2] (arsenate co-treatment: none) it was -0.587.

Regarding SERF1A (UniProt O75920), the thermal stability z-score in test [1] was -0.297; in test [2] (setting [3]), -0.0837; in test [2] (arsenate co-treatment: none), 0.743.

Take DDI2 (UniProt Q5TDH0): the thermal stability z-score was -0.217 in test [1], -0.174 in test [2] (setting [3]) and -0.209 in test [2] (arsenate co-treatment: none).

For IFT27 (UniProt Q9BW83), the values for the thermal stability z-score in test [1], in test [2] (setting [3]) and in test [2] (arsenate co-treatment: none) were 0.151, 0.856 and 0.225, respectively.

For SNX15 (UniProt Q9NRS6), the values for the thermal stability z-score in test [1], in test [2] (setting [3]) and in test [2] (arsenate co-treatment: none) were 0.121, -0.412 and 0.114, respectively.

RAB35 (UniProt Q15286): the thermal stability z-score in test [1] was -0.435; in test [2] (setting [3]) it was -0.564; in test [2] (arsenate co-treatment: none), 0.0595.

Consider DHRS7B (UniProt Q6IAN0), for which the results for the thermal stability z-score in test [1], in test [2] (setting [3]) and in test [2] (arsenate co-treatment: none) were 0.0755, 0.315 and -0.159, respectively.

On to ITFG1 (UniProt Q8TB96), for which the values for the thermal stability z-score in test [1], in test [2] (setting [3]) and in test [2] (arsenate co-treatment: none) were 0.61, -0.794 and -0.597, respectively.

Take ADRBK1 (UniProt P25098): the results for the thermal stability z-score in test [1], in test [2] (setting [3]) and in test [2] (arsenate co-treatment: none) were 0.052, 0.556 and 0.421, respectively.
